Values after ≈ are worked out from the molar mass of the structure shown. Read-outs that look alike come from different tables or passages of the source.
Columns and labels:
[1] = system: HIV-1(IIIB) (WT); assay: microbe, parasite or virus in culture; format: cell-based; settings: Human immunodeficiency virus 1, IIIB, CCRF-CEM
Outline: (§1)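 Syncytium formation read out after 4 days at 37° C. Cultures: CEM cells, 250,000/ml, infected at 100 50% cell culture infective doses/ml and added to compound dilutions.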

[2] = system: HIV-1/I(0.1) 103-Asn; assay: Sensitivity of mutant HIV-1 strain in CEM cell cultures; format: cell-based; settings: Human immunodeficiency virus 1, CCRF-CEM; Table 5; read-out: EC50
Outline: as §1

[3] = system: HIV-1/II(0.1) 100-Ile; assay: as above; format: cell-based; settings: Human immunodeficiency virus 1, CCRF-CEM; Table 5; read-out: EC50
Outline: as §1

[4] = system: HIV-1/III(0.1) 103-Asn; assay: as above; format: cell-based; settings: Human immunodeficiency virus 1, CCRF-CEM; Table 5; read-out: EC50
Outline: as §1

[5] = system: HIV-1/IV(0.1) 103-Thr; assay: as above; format: cell-based; settings: Human immunodeficiency virus 1, CCRF-CEM; Table 5; read-out: EC50
Outline: as §1

[6] = system: HIV-1/Nev (106-Ala); assay: as above; format: cell-based; settings: Human immunodeficiency virus 1, CCRF-CEM; CEM cells, Table 1; read-out: 50% Effective Concentration
Outline: as §1

[7] = system: HIV-1/Pyr (181-Cys); assay: as above; format: cell-based; settings: Human immunodeficiency virus 1, CCRF-CEM; CEM cells, Table 1; read-out: 50% Effective Concentration
Outline: as §1

[8] = system: HIV-1/TIBO R82150 (100-Ile); assay: as above; format: cell-based; settings: Human immunodeficiency virus 1, CCRF-CEM; CEM cells, Table 1; read-out: 50% Effective Concentration
Outline: as §1

[9] = system: HIV-1/TIBO R82913 (103-Asn); assay: as above; format: cell-based; settings: Human immunodeficiency virus 1, CCRF-CEM; CEM cells, Table 1; read-out: 50% Effective Concentration
Outline: as §1

[10] = system: HIV-1/TSAO-m^3 T (138-Lys); assay: as above; format: cell-based; settings: Human immunodeficiency virus 1, CCRF-CEM; CEM cells, Table 1; read-out: 50% Effective Concentration
Outline: as §1

[11] = system: HIV-1/V(0.1) 101-Ile + 141-Glu; assay: as above; format: cell-based; settings: Human immunodeficiency virus 1, CCRF-CEM; Table 5; read-out: EC50
Outline: as §1

[12] = system: HIV-1/V(0.5) 103-Asn; assay: as above; format: cell-based; settings: Human immunodeficiency virus 1, CCRF-CEM; Table 5; read-out: EC50
Outline: as §1

[13] = molecular target: HIV-1 RT (WT) (Human immunodeficiency virus type 1 group M subtype B, UniProt P03366); assay: biochemical
Outline: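 Recombinant HIV-1 RT incubated 30 min at 37° C with poly(C).oligo(dG) (0.1 mM) and [³H]dGTP (2.95 μM) in Tris pH 7.8 with 5 mM MgCl2, 150 mM KCl, DTT, glutathione, Triton X-100; 5-fold compound dilutions. Acid-insoluble radioactivity counted after TCA/pyrophosphate precipitation.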

[14] = system: HIV-1(IIIB); assay: Knock-out concentrations: breakthrough of HIV-1(IIIB)-induced cytopathicity in CEM cell cultures; format: cell-based; settings: for activity at 0.1 µg/mL / activity at 0.5 µg/mL / activity at 2.5 µg/mL: Human immunodeficiency virus 1, IIIB, CCRF-CEM, read-out: HIV-1-induced cytopathicity in cell culture; for activity at 0.1 µg/mL: 0.1 μg/ml; for activity at 0.5 µg/mL: 0.5 μg/ml; for activity at 2.5 µg/mL: 2.5 μg/ml
Outline: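 CEM cells in RPMI 1640 with 10% FBS infected with HIV-1(IIIB) at ~1000× CCID50, subcultured every 3–4 days into fresh uninfected cells with drug held constant for 10 subcultivations (35 days), then ≥5 drug-free passages. Breakthrough scored by syncytium formation. Combinations used the two lowest single-drug starting concentrations.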

[15] = 936 h, day 39 post infection, compound absent from day 35
[16] = 1008 h, day 42 post infection, compound absent from day 35
[17] = 1104 h, day 46 post infection, compound absent from day 35
[18] = 1176 h, day 49 post infection, compound absent from day 35
[19] = 1272 h, day 53 post infection, compound absent from day 35

Structure (SMILES): Cc1occc1C(=S)Nc1ccc(Cl)c(C(=O)OC2CCCC2)c1 [Compound IV]
- EC50 ([1]; CEM cells, Table 1, read-out: 50% Effective Concentration): 0.005 µg/mL (≈ 0.0137 µM)
- EC50 ([1]; HIV-1 (III8), Table 5, read-out: EC50): 0.005 µg/mL (≈ 0.0137 µM)
- IC50 ([1]; range stated for Compounds I-V together, read-out: 50% inhibitory concentration, HIV-1(IIIB) replication in CEM cells): 0.004 to 0.05 µg/mL (≈ 0.011 to 0.137 µM)
- EC50 [2]: 0.2 µg/mL (≈ 0.55 µM)
- EC50 [3]: 0.4 µg/mL (≈ 1.1 µM)
- EC50 [4]: 0.14 µg/mL (≈ 0.385 µM)
- EC50 [5]: 0.53 µg/mL (≈ 1.46 µM)
- EC50 [6]: 0.04 µg/mL (≈ 0.11 µM)
- EC50 [7]: 0.045 µg/mL (≈ 0.124 µM)
- EC50 [8]: 0.17 µg/mL (≈ 0.467 µM)
- EC50 [9]: 0.7 µg/mL (≈ 1.92 µM)
- EC50 [10]: 0.035 µg/mL (≈ 0.0962 µM)
- EC50 [11]: 0.11 µg/mL (≈ 0.302 µM)
- EC50 [12]: 0.65 µg/mL (≈ 1.79 µM)
- IC50 ([13]; range stated for the compounds together, poly(C).oligo(dG), 2.95 μM [2,8-3H]dGTP, read-out: IC50 on recombinant HIV-1 RT): 49.5 to 212 nM
- IC50 ([13]; substrate [2,8-3H]dGTP 2.95 μM, template poly(rC)oligo(dG), read-out: IC50, anti-HIV-1 RT (WT) activity (converted)): 49.5 nM
- prevention of virus breakthrough, fold more efficient than BHAP [14]: at least 5 fold
- prevention of virus breakthrough, fold more efficient than nevirapine [14]: ≥ 25 fold
- activity at 0.1 µg/mL ([14]; 96 h, day 4 post infection): 0%
- activity at 0.5 µg/mL ([14]; 96 h, day 4 post infection): 0%
- activity at 2.5 µg/mL ([14]; 96 h, day 4 post infection): 0%
- activity at 0.1 µg/mL ([14]; 192 h, day 8 post infection): 0%
- activity at 0.5 µg/mL ([14]; 192 h, day 8 post infection): 0%
- activity at 2.5 µg/mL ([14]; 192 h, day 8 post infection): 0%
- activity at 0.1 µg/mL ([14]; 264 h, day 11 post infection): 0%
- activity at 0.5 µg/mL ([14]; 264 h, day 11 post infection): 0%
- activity at 2.5 µg/mL ([14]; 264 h, day 11 post infection): 0%
- activity at 0.1 µg/mL ([14]; 336 h, day 14 post infection): 6.2%
- activity at 0.5 µg/mL ([14]; 336 h, day 14 post infection): 0%
- activity at 2.5 µg/mL ([14]; 336 h, day 14 post infection): 0%
- activity at 0.1 µg/mL ([14]; 408 h, day 17 post infection): 25%
- activity at 0.5 µg/mL ([14]; 408 h, day 17 post infection): 0%
- activity at 2.5 µg/mL ([14]; 408 h, day 17 post infection): 0%
- activity at 0.1 µg/mL ([14]; 504 h, day 21 post infection): 87.5%
- activity at 0.5 µg/mL ([14]; 504 h, day 21 post infection): 0%
- activity at 2.5 µg/mL ([14]; 504 h, day 21 post infection): 0%
- activity at 0.1 µg/mL ([14]; 600 h, day 25 post infection): 100%
- activity at 0.5 µg/mL ([14]; 600 h, day 25 post infection): 0%
- activity at 2.5 µg/mL ([14]; 600 h, day 25 post infection): 0%
- activity at 0.1 µg/mL ([14]; 672 h, day 28 post infection): 100%
- activity at 0.5 µg/mL ([14]; 672 h, day 28 post infection): 0%
- activity at 2.5 µg/mL ([14]; 672 h, day 28 post infection): 0%
- activity at 0.1 µg/mL ([14]; 768 h, day 32 post infection): 100%
- activity at 0.5 µg/mL ([14]; 768 h, day 32 post infection): 0%
- activity at 2.5 µg/mL ([14]; 768 h, day 32 post infection): 0%
- activity at 0.1 µg/mL ([14]; 840 h, day 35 post infection): 100%
- activity at 0.5 µg/mL ([14]; 840 h, day 35 post infection): 0%
- activity at 2.5 µg/mL ([14]; 840 h, day 35 post infection): 0%
- activity at 0.1 µg/mL [14, 15]: 100%
- activity at 0.5 µg/mL [14, 15]: 0%
- activity at 2.5 µg/mL [14, 15]: 0%
- activity at 0.1 µg/mL [14, 16]: 100%
- activity at 0.5 µg/mL [14, 16]: 0%
- activity at 2.5 µg/mL [14, 16]: 0%
- activity at 0.1 µg/mL [14, 17]: 100%
- activity at 0.5 µg/mL [14, 17]: 0%
- activity at 2.5 µg/mL [14, 17]: 0%
- activity at 0.1 µg/mL [14, 18]: 100%
- activity at 0.5 µg/mL [14, 18]: 0%
- activity at 2.5 µg/mL [14, 18]: 0%
- activity at 0.1 µg/mL [14, 19]: 100%
- activity at 0.5 µg/mL [14, 19]: 0%
- activity at 2.5 µg/mL [14, 19]: 0%
- concentration at which virus emerged (virus breakthrough) ([14]; tested at 0.1, 0.5 and 2.5 μg/ml, 35 days): 0.1 µg/mL

Reference: patent US5968910A, “Compositions containing two or three inhibitors of different HIV reverse transcriptases” (priority 1994, dated 1999)
